Results published in ChEMBL document CHEMBL4715892, “Synthesis of novel quinoxaline-alkynyl derivatives and their anti-Mycobacterium tuberculosis activity” (Bioorg Med Chem Lett, 2021).

Legend:
[1] = tested on: Mycobacterium tuberculosis; experiment: Antitubercular activity against Mycobacterium tuberculosis H37Rv assessed as reduction in microbial growth after 7 to 14 days by broth dilution method; type: functional; conditions: time 7-14 day
[2] = tested on: RAW264.7; experiment: Cytotoxicity against mouse RAW264.7 cells assessed as reduction in cell viability up to 24 hrs by MTT assay; type: cell-based; conditions: RAW264.7, 24 h
[3] = Selectivity index ratio of IC50 for cytotoxicity against mouse RAW264.7 cells to MIC90 for antitubercular activity against Mycobacterium tuberculosis H37Rv; type: toxicity, cell-based; conditions: read-out: Selectivity Index

Row | SMILES | MIC90 [1] | IC50 [2] | selectivity ratio [3]
1 | CO[C@H]1/C=C/O[C@@]2(C)Oc3c(C)c(O)c4c(O)c(c(/C=N/N5CCN(C)CC5)c(O)c4c3C2=O)NC(=O)/C(C)=C\C=C\[C@H](C)[C@H](O)[C@@H](C)[C@@H](O)[C@@H](C)[C@H](OC(C)=O)[C@@H]1C [RIFAMPIN] | 0.01 µM | – | –
2 | O=C(OCC#Cc1cnc2cc(Cl)ccc2n1)c1cccs1 | 11.2 µM | 11.3 µM | 1
3 | CC(=O)OCC#Cc1cnc2cc(Cl)ccc2n1 | 16.5 µM | 20.2 µM | 1.22
4 | O=CC#Cc1cnc2ccccc2n1 | 4.55 µM | 316 µM | 69.5
5 | O=C(OCC#Cc1cnc2cc([N+](=O)[O-])ccc2n1)c1ccccc1 | 93.8 µM | 248 µM | 2.6
6 | OCC#Cc1cnc2ccccc2n1 | 52.7 µM | 43.7 µM | 0.83
7 | CC(=O)OCC#Cc1cnc2ccccc2n1 | 18.1 µM | 47.7 µM | 2.64
8 | O=CC#Cc1cnc2cc(Cl)ccc2n1 | 1.13 µM | 4.6 µM | 4.1
9 | CS(=O)(=O)OCC#Cc1cnc2cc([N+](=O)[O-])ccc2n1 | 1.59 µM | 13.5 µM | 8.5
10 | CS(=O)(=O)OCC#Cc1cnc2ccccc2n1 | 6.47 µM | 36.8 µM | 5.7
11 | OCC#Cc1cnc2cc(Cl)ccc2n1 | 15.9 µM | 35.3 µM | 2.22
12 | O=C(OCC#Cc1cnc2cc(Cl)ccc2n1)c1ccccc1 | 57.6 µM | 82.3 µM | 1.43
13 | O=C(OCC#Cc1cnc2cc([N+](=O)[O-])ccc2n1)c1cccs1 | 2.74 µM | 19.9 µM | 7.24
14 | CC(=O)OCC#Cc1cnc2cc([N+](=O)[O-])ccc2n1 | 1.8 µM | 13.2 µM | 7.3
15 | CS(=O)(=O)OCC#Cc1cnc2cc(Cl)ccc2n1 | 54.5 µM | – | –
16 | O=C(OCC#Cc1cnc2ccccc2n1)c1ccccc1 | 16.2 µM | 55.6 µM | 3.4
17 | O=C(OCC#Cc1cnc2ccccc2n1)c1cccs1 | 27 µM | 39 µM | 1.44
18 | O=[N+]([O-])c1ccc2nc(C#CCO)cnc2c1 | 4.26 µM | 31.2 µM | 7.3
